pIC50: −log10 of the molar value.
Assays:
FAAH = molecular target: T1, FAAH (Homo sapiens, UniProt O00519); assay: FAAH LC-MS/MS screening assay (anandamide hydrolysis by human liver microsomes); assay type: biochemical; settings: for anandamide hydrolysis allowed (percent hydrolysis normalized to control): inhibitor at 30 nM, 60 minute incubation at 37° C.
T1 construct: 25 μL of human liver microsomes (31.3 μg); from tissue; host or cells: human liver microsomes
T1 sequence (O00519 1-579): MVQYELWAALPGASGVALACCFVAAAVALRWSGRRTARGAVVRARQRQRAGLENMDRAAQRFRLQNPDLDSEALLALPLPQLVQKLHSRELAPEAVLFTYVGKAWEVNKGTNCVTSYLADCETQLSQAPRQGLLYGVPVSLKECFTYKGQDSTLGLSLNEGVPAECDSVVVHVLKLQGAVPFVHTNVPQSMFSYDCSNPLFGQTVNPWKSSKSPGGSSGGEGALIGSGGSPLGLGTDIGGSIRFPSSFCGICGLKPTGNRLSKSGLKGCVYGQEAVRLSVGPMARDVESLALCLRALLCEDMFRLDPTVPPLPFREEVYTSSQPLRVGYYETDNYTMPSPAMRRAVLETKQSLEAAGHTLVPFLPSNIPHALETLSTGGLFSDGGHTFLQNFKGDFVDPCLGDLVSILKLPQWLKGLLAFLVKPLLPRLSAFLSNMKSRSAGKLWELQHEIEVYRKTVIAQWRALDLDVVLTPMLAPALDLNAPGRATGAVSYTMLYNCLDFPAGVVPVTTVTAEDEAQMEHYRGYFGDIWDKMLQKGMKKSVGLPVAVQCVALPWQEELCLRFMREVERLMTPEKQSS
Experimental: For determining IC50 values for candidate FAAH inhibitor compounds, the above method is used with an adjusted FAAH inhibitor concentration. In the IC50 assay, the FAAH inhibitor is added at a concentration range of approximately 3 μM to 0.03 nM. The final calculation of IC50 is determined by first transforming the concentrations by “X=log(X)” and then analyzing the data with a sigmoidal dose-response curve (no constraints) using GraphPad Prism version 4.00 for Windows (GraphPad Software, San Diego Calif. USA, www.graphpad.com).

[1] = tested on: CFA-induced mechanical hyperalgesia in rats; assay: Complete Freund's Adjuvant (CFA)-induced mechanical hyperalgesia (paw withdrawal threshold); assay type: in vivo, male Wistar rats; settings: 60 mg/kg, p.o.; 24 h after intraplantar CFA; reading 2 h post drug administration
Experimental: In this rat model of inflammatory pain, inflammation is induced by intraplantar injection of complete Freund's adjuvant (CFA) into the hind paw. The associated mechanical hyperalgesia is quantified by measuring the reduction in paw withdrawal threshold (PWT) to a mechanical compression of the paw.
Experiments were conducted using male Wistar rats weighing 130-180 g. In brief, the rats' paw withdrawal threshold (PWT) to a mechanical compression of the hind paw was measured (baseline reading) using a Randall-Sellito apparatus (Ugo Basile). A cut-off of 200 g was employed to minimise tissue damage to the paw. The animals were then briefly anaesthetised with isoflurane (˜2%) and complete Freund's adjuvant (0.1 ml per paw) was injected subcutaneously (s.c.) into the plantar surface of the left hind paw. The animals were then returned to their home cage and left for the inflammation to develop.
Twenty four hours after CFA injection, PWT's were re-measured (0 min); only those animals developing hyperalgesia (>20 g decrease in PWT compared to their baseline readings) were included for drug assessment. Rats were then dosed orally with either vehicle or test compound. Readings were then made at 2 h post drug administration.

[2] = Pharmacokinetics in rats following oral administration as a suspension; blood concentrations of compound, acetaminophen and fatty acid ethanolamides; assay type: in vivo; settings: 10 mg/kg oral gavage
Experimental: Potential FAAH inhibitors are formulated for oral (p.o.), intraperitoneal (i.p.) or intravenous (i.v.) delivery to rats. Formulated compounds are administered and the animals were sacrificed at pre-determined time points post dose. At sacrifice, blood samples are collected into EDTA plasma tubes and whole brains were snap frozen in liquid nitrogen. EDTA plasma was isolated from blood samples after centrifugation. Brain and plasma samples are stored at −80° C. prior to analysis. All samples (brain and plasma) are analyzed for the concentrations of test compound (FAAH inhibitor), metabolites of the test compound (such as, for example, acetaminophen, propofol, NSAID, or NSAID metabolite) and endogenous fatty acid ethanolamide levels (including anandamide, oleoylethanolamide, and palmitoylethanolamide) by LC-MS/MS according to the invention. Levels of these compounds are compared across time points to determine pharmacokinetic properties of the test compound and partial pharmacological effects of inhibiting FAAH activity (including changes of fatty acid ethanolamide levels).
The pharmacokinetic properties of 4-acetamidophenyl cyclohexylnethylcarbamate were assessed in rats following oral administration as a suspension. […] The suspension of 4-acetamidophenyl cyclohexylmethylcarbamate was administered to rats at a dose of 10 mg/kg of 4-acetamidophenyl cyclohexylmethylcarbamate via oral gavage. Blood samples were extracted from the rats. Samples were analyzed for concentrations of OEA, PEA, AEA, 4-acetamidophenyl cyclohexylmethylcarbamate and acetaminophen (in-vivo metabolite). Baseline levels of OEA and PEA were 4.18 and 4.17 ng/mL, respectively.

SMILES	anandamide hydrolysis allowed (percent hydrolysis normalized to control) (FAAH) [%]	pIC50 (FAAH; inhibitor range approximately 3 μM to 0.03 nM)	reversal of mechanical hyperalgesia [1]	AUC of AEA [2] [ng·h/mL]	Tmax of AEA [2] [h]	Tmax of OEA [2] [min]	Tmax of PEA [2] [min]	AUC of OEA ([2]; baseline OEA 4.18 ng/mL) [ng·h/mL]	Cmax of OEA ([2]; baseline OEA 4.18 ng/mL) [ng/mL]	AUC of PEA ([2]; baseline PEA 4.17 ng/mL) [ng·h/mL]	Cmax of PEA ([2]; baseline PEA 4.17 ng/mL) [ng/mL]	AUC ([2]; rat, plasma, suspension) [ng·h/mL]	Cmax ([2]; rat, plasma, suspension) [ng/mL]	Tmax ([2]; rat, plasma, suspension) [min]
NC(=O)c1cccc(-c2cccc(OC(=O)NC3CCCCC3)c2)c1 [reference compound]	30	–	–	–	–	–	–	–	–	–	–	–	–	–
CC(=O)Nc1ccc(OC(=O)NC2CCCCC2)cc1 [4-acetamidophenyl cyclohexylcarbamate]	56	–	–	–	–	–	–	–	–	–	–	–	–	–
CC(=O)Nc1ccc(OC(=O)NCC2CCCCC2)cc1 [4-acetamidophenyl cyclohexylmethylcarbamate]	37	7.84	complete reversal	0	0	90	60	40	7.55	43	8.85	6780	7740	30
